Assay results taken from patent publication US10632209B2, “ASH1L inhibitors and methods of treatment therewith” (The Regents of the University of Michigan, priority 2017, dated 2020).
Each block holds one molecule with its values, some of them ahead of it.

Tests used:
[1] = biological target: T1, ASH1L SET-BAH construct (amino acids 2069-2833) (Homo sapiens, UniProt Q9NR48); test: ASH1L histone methyltransferase (HMT) assay; assay type: biochemical; details: read-out: IC50 value measured in histone methyltransferase (HMT) assay
T1 construct: ASH1L SET-BAH construct (amino acids 2069-2833); His tag (implied only by nickel-NTA purification); made in house; host or cells: E. coli BL21(DE3) T1R
Protocol: ASH1L SET protein was expressed as MOCR fusion proteins in E. coli BL21(DE3) T1R cells at 22° C. Transformed cells were lysed in buffer A containing 50 mM Tris (pH 7.5), 500 mM NaCl, 1 mM tris(2-carboxyethyl)phosphine (TCEP), and 20 mM imidazole. Cell debris was pelleted by centrifugation, and the supernatant was loaded on a column packed with nickel-nitrilotriacetic acid beads. The column was washed with buffer A and protein eluted with a 100 mL linear gradient up to buffer A containing 500 mM imidazole. The MOCR tag was cleaved with tobacco etch virus (TEV) protease during overnight dialysis against 50 mM Tris (pH 7.5), 100 mM NaCl, and 1 mM TCEP. Cleaved ASH1L was isolated from MOCR by repeating the nickel column purification and collecting ASH1L in the flow-through and low-imidazole fractions. ASH1L was further purified by gel filtration chromatography using a Superdex-75 column running in buffer B containing 50 mM Tris (pH 7.5), 100 mM NaCl, and 1 mM TCEP. ASH1L SET-PHD and SET-BAH proteins were purified similarly, with the following differences. […]
Chicken mono/dinucleosomes (HMT-35-179), chicken oligo nucleosomes (HMT-35-177), and HeLa nucleosomes (HMT-35-123) were purchased from Reaction Biology. […] The P81 squares were then dried for 1 h, added to 10 mL of Ultima Gold scintillation cocktail (PerkinElmer), and analyzed using a Beckman scintillation counter.

MV4;11 = test: MTT cell viability assay, MV4;11; assay type: cell-based, Human; details: MV4;11, 14 days of treatment
Protocol: (§1) Human leukemia cells were plated at 1×10^5 cells/ml in 24-well plates, treated with 0.25% DMSO or compounds and cultured at 37° C. for 7-14 days. Every four days, the volume corresponding to 1×10^5 cells of DMSO-treated cells was spun down and resuspended in fresh media with fresh compound. At day 0 and each four day interval, 100 μl aliquots of the cell suspension were transferred to 96-well plates in quadruplicates. The quadruplicate samples were incubated for 4 days at 37° C., and then an MTT cell proliferation assay kit (Roche) was used to measure viable cells. Absorbance was read at 570 nm using a PHERAstar (BMG) microplate reader.

SEM cells = test: MTT cell viability assay, SEM; assay type: cell-based, Human; details: 14 days of treatment
Protocol: as §1

MOLM13 = test: MTT cell viability assay, MOLM13; assay type: cell-based, Human; details: MOLM13, 14 days of treatment
Protocol: as §1

K562 (CML cell line) = test: MTT cell viability assay, K562 control cell line; assay type: cell-based, Human; details: 14 days of treatment
Protocol: as §1

KOPN8 = test: MTT cell viability assay, KOPN8; assay type: cell-based, Human; details: KOPN8, 14 days of treatment
Protocol: as §1

[2] = test system: MV4;11 xenotransplantation mouse models of MLL leukemia; test: MV4;11 xenotransplantation mouse model of MLL leukemia; assay type: in vivo, mice; details: i.p.
Protocol: Immunocompromised 8-10 week-old female NSG mice were used for in vivo efficacy studies in accordance with IACUC guidelines. Luciferase expressing human MV4;11 leukemia cells (MV4;11-luc) were engrafted intravenously via tail vein injection (1×10^7 cells/animal). Five days after transplantation mice were randomly assigned to a vehicle control or a compound treatment group (6-7 animals per group). […] Body weight was measured daily, while mean luminescence signal was measured at days 6, 13 and 19 post-transplantation in all mice. […]

MV4;11 cells = test: Differentiation of MV4;11 cells (Cytospin/Wright-Giemsa staining); assay type: cell-based, Human; details: 7 days of treatment
Protocol: Cytospin/Wrigtht-Giemsa Staining
1×10^5 of MV4;11 cells treated with compounds or DMSO were harvested and placed in a Shandon EZ Single Cytofunnel (Thermo Fisher). Samples were centrifuged at 600 rpm for 5 min. The slides were air dried before staining with a Hema-3 kit (Thermo Fisher).

[3] = test system: normal human hematopoietic hCD34+ cells; test: Toxicity to normal hematopoietic hCD34+ cells; assay type: cell-based
[4] = test system: MLL fusion target genes (HOXA genes, MEIS1, MEF2C), MNDA; test: Quantitative RT-PCR of MLL fusion target genes and MNDA; assay type: cell-based; details: dose-dependent manner
Protocol: Total RNA was extracted from cells using the RNeasy mini kit (QIAGEN), and then 100-2000 ng of total RNA was reverse transcribed using the High Capacity cDNA Reverse Transcription Kit (Applied Biosystems) according to the manufacturer's protocol. Real-time PCR was performed using a CFX96 Real-Time PCR Detection System (Biorad). TaqMan Gene Expression Master Mix and TaqMan Gene Expression Assays were purchased from Thermo Fisher. Relative quantification of each gene transcript was carried out using the ΔΔCt method as described in the Biorad Real-Time PCR Applications Guide.

IC50 [1]: 750 nM
Compound: COCCC(=O)Nc1ccc2c(-c3cccc(C(N)=S)c3)cn(C3CCN(S(C)(=O)=O)CC3)c2c1 [Compound 37]

Compound: CC(C)S(=O)(=O)N1CCC(n2cc(-c3cccc(C(N)=S)c3)c3ccc(CNc4nnc(N)s4)cc32)CC1 [Compound 34]
proliferation, MTT cell viability assay (MV4;11): inhibits proliferation
proliferation, MTT cell viability assay (SEM cells): inhibits proliferation
growth inhibition / proliferation, MTT assay (MOLM13): inhibits proliferation
proliferation, MTT cell viability assay (K562 (CML cell line)): but not control cell line K562
growth inhibition / proliferation, MTT assay (KOPN8): inhibits proliferation

Compound: Cl.NC(=S)c1cccc(-c2cn(C3CCN(S(=O)(=O)C(F)(F)F)CC3)c3cc(CNC(=O)C4CNC4)ccc23)c1 [Compound 59, N-((3-(3-carbamothioylphenyl)-1-(1-((trifluoromethyl)sulfonyl)piperidin-4-yl)-1H-indol-6-yl)methyl)azetidine-3-carboxamide hydrochloride salt]
leukemia progression, bioluminescence level in mice ([2]; 7 days of treatment, 40 mg/kg, q.d.): slows down leukemia progression
leukemia progression, flow cytometry of hCD45+ cells in spleen ([2]; 21 days of treatment, 25 mg/kg, b.i.d.): inhibits leukemia progression

Compound: CC1CN(S(C)(=O)=O)CCC1n1cc(-c2cccc(C(N)=S)c2)c2ccc(N)cc21 (centres unmarked) [Compound 22]
growth inhibition / proliferation, MTT assay (MOLM13): growth inhibition
differentiation in MV4;11 cells (MV4;11 cells): induces differentiation
toxicity to normal human hematopoietic hCD34+ cells [3]: not toxic
growth inhibition / proliferation, MTT assay (KOPN8): growth inhibition
expression level of MNDA differentiation marker [4]: increase the expression level
expression of MLL fusion target genes (HOXA genes, MEIS1, MEF2C) [4]: downregulates expression
